According to patent publication US10160724B2, “Tetrahydropyridine derivatives and their use as antibacterial agents” (Dong-A St Co., Ltd., priority 2016, dated 2018):
Values after ≈ are worked out from the molar mass of the structure shown.

Columns and labels:
Experiment in all cases: In vitro antibiotic activity, agar dilution method (Mueller-Hinton agar, NCCLS)
Format in all cases: cell-based
E. coli ATCC 25922 = details: Escherichia coli, ATCC25922; agar dilution, Mueller-Hinton agar; read-out: MIC for E. coli ATCC 25922
Procedure: (§1) To measure the antibiotic activity of the compounds prepared by Examples, antibiotic activity test in vitro was performed by agar dilution method using Mueller-Hinton agar according to the NCCLS (National Committee for Clinical Laboratory Standards. 2000. Methods for dilution antimicrobial susceptibility tests for bacteria that grow aerobiocally. Approved standard, NCCLS document M7-M5, 5th ed, vol 20, no 2. National Committee for Clinical Laboratory Standards, Wayne, Pa.). The test strain was Escherichia coli (ATCC 25922), Klebsiella pneumonia (ATCC 29665) and Pseudomonas aeriginosa (PAO1).

K. pneumoniae ATCC 29665 = details: Klebsiella pneumoniae, ATCC29665; agar dilution, Mueller-Hinton agar; read-out: MIC for K. pneumoniae ATCC 29665
Procedure: as §1

P. aeruginosa PAO1 = details: Pseudomonas aeruginosa, PAO1; agar dilution, Mueller-Hinton agar; read-out: MIC for P. aeruginosa PAO1
Procedure: as §1

SMILES	MIC (E. coli ATCC 25922) [µg/mL]	MIC (K. pneumoniae ATCC 29665) [µg/mL]	MIC (P. aeruginosa PAO1) [µg/mL]
CC(CCN1CC=C(c2ccc(C#CCCCOC(N)=O)cc2)CC1)(C(=O)NO)S(C)(=O)=O (stereo not drawn) [Example 27, 5-(4-(1-(4-(hydroxyamino)-3-methyl-3-(methylsulfonyl)-4-oxobutyl)-1,2,3,6-tetrahydropyridin-4-yl)phenyl)pent-4-yn-1-yl carbamate]	< 1	1 to 8 (≈ 2.09 to 16.8 µM)	1 to 8 (≈ 2.09 to 16.8 µM)
COCCCC#Cc1ccc(C2=CCN(CCC(C)(C(=O)NO)S(C)(=O)=O)CC2)cc1 (stereo not drawn) [Example 28, N-hydroxy-4-(4-(4-(5-methoxypent-1-yn-1-yl)phenyl)-3,6-dihydropyridin-1(2H)-yl)-2-methyl-2-(methylsulfonyl)butanamide]	< 1	< 1	1 to 8 (≈ 2.23 to 17.8 µM)
CC(CCN1CC=C(c2ccc(C#CCCCCO)cc2)CC1)(C(=O)NO)S(C)(=O)=O (stereo not drawn) [Example 29, N-hydroxy-4-(4-(4-(6-hydroxyhex-1-yn-1-yl)phenyl)-3,6-dihydropyridin-1(2H)-yl)-2-methyl-2-(methylsulfonyl)butanamide]	< 1	1 to 8 (≈ 2.23 to 17.8 µM)	1 to 8 (≈ 2.23 to 17.8 µM)
CC(CCN1CC=C(c2ccc(C#CCCCCN3CCOCC3)cc2)CC1)(C(=O)NO)S(C)(=O)=O (stereo not drawn) [Example 30, N-hydroxy-2-methyl-2-(methylsulfonyl)-4-(4-(4-(6-morpholinohex-1-yn-1-yl)phenyl)-3,6-dihydropyridin-1(2H)-yl)butanamide]	< 1	1 to 8 (≈ 1.93 to 15.5 µM)	1 to 8 (≈ 1.93 to 15.5 µM)
CN(C)CC#Cc1ccc(C2=CCN(CCC(C)(C(=O)NO)S(C)(=O)=O)CC2)cc1F (stereo not drawn) [Example 31, 4-(4-(4-(3-(dimethylamino)prop-1-yn-1-yl)-3-fluorophenyl)-3,6-dihydropyridin-1(2H)-yl)-N-hydroxy-2-methyl-2-(methylsulfonyl)butanamide]	< 1	1 to 8 (≈ 2.21 to 17.7 µM)	1 to 8 (≈ 2.21 to 17.7 µM)
CN(C)CC#Cc1c(F)cc(C2=CCN(CCC(C)(C(=O)NO)S(C)(=O)=O)CC2)cc1F (stereo not drawn) [Example 32, 4-(4-(4-(3-(dimethylamino)prop-1-yn-1-yl)-3,5-difluorophenyl)-3,6-dihydropyridin-1(2H)-yl)-N-hydroxy-2-methyl-2-(methylsulfonyl)butanamide]	< 1	1 to 8 (≈ 2.13 to 17 µM)	1 to 8 (≈ 2.13 to 17 µM)
CN(C)CC#Cc1ccc(C2=CCN(CCC(C)(C(=O)NO)S(C)(=O)=O)CC2)c(F)c1 (stereo not drawn) [Example 33, 4-(4-(4-(3-(dimethylamino)prop-1-yn-1-yl)-2-fluorophenyl)-3,6-dihydropyridin-1(2H)-yl)-N-hydroxy-2-methyl-2-(methylsulfonyl)butanamide]	1 to 8 (≈ 2.21 to 17.7 µM)	8 to 16 (≈ 17.7 to 35.4 µM)	1 to 8 (≈ 2.21 to 17.7 µM)
CC(CCN1CC=C(c2ccc(C#Cc3cccs3)cc2)CC1)(C(=O)NO)S(C)(=O)=O (stereo not drawn) [Example 34, N-hydroxy-2-methyl-2-(methylsulfonyl)-4-(4-(4-(thiophen-2-ylethynyl)phenyl)-3,6-dihydropyridin-1(2H)-yl)butanamide]	< 1	1 to 8 (≈ 2.18 to 17.4 µM)	1 to 8 (≈ 2.18 to 17.4 µM)
CC(CCN1CC=C(c2ccc(C#Cc3ccc([N+](=O)[O-])cc3)cc2)CC1)(C(=O)NO)S(C)(=O)=O (stereo not drawn) [Example 35, N-hydroxy-2-methyl-2-(methylsulfonyl)-4-(4-(4-((4-nitrophenyl)ethynyl)phenyl)-3,6-dihydropyridin-1(2H)-yl)butanamide]	> 16	> 16	> 16
CC(CCN1CC=C(c2ccc(C#Cc3cccnc3)cc2)CC1)(C(=O)NO)S(C)(=O)=O (stereo not drawn) [Example 36, N-hydroxy-2-methyl-2-(methylsulfonyl)-4-(4-(4-(pyridin-3-ylethynyl)phenyl)-3,6-dihydropyridin-1(2H)-yl)butanamide]	< 1	1 to 8 (≈ 2.2 to 17.6 µM)	1 to 8 (≈ 2.2 to 17.6 µM)
CC(CCN1CC=C(c2ccc(C#Cc3ccc(O)cc3)cc2)CC1)(C(=O)NO)S(C)(=O)=O (stereo not drawn) [Example 37, N-hydroxy-4-(4-(4-((4-hydroxyphenyl)ethynyl)phenyl)-3,6-dihydropyridin-1(2H)-yl)-2-methyl-2-(methylsulfonyl)butanamide]	< 1	> 16	> 16
Cn1cnc(C#Cc2ccc(C3=CCN(CCC(C)(C(=O)NO)S(C)(=O)=O)CC3)cc2)c1 (stereo not drawn) [Example 38, N-hydroxy-2-methyl-4-(4-(4-((1-methyl-1H-imidazol-4-yl)ethynyl)phenyl)-3,6-dihydropyridin-1(2H)-yl)-2-(methylsulfonyl)butanamide]	< 1	1 to 8 (≈ 2.19 to 17.5 µM)	1 to 8 (≈ 2.19 to 17.5 µM)
CN1CC(C#Cc2ccc(C3=CCN(CCC(C)(C(=O)NO)S(C)(=O)=O)CC3)cc2)C1 (stereo not drawn) [Example 39, N-hydroxy-2-methyl-4-(4-(4-((1-methylazetidin-3-yl)ethynyl)phenyl)-3,6-dihydropyridin-1(2H)-yl)-2-(methylsulfonyl)butanamide]	8 to 16 (≈ 18 to 35.9 µM)	8 to 16 (≈ 18 to 35.9 µM)	8 to 16 (≈ 18 to 35.9 µM)
CC(=O)N1CC(C#Cc2ccc(C3=CCN(CCC(C)(C(=O)NO)S(C)(=O)=O)CC3)cc2)C1 (stereo not drawn) [Example 40, 4-(4-(4-((1-acetylazetidin-3-yl)ethynyl)phenyl)-3,6-dihydropyridin-1(2H)-yl)-N-hydroxy-2-methyl-2-(methylsulfonyl)butanamide]	1 to 8 (≈ 2.11 to 16.9 µM)	1 to 8 (≈ 2.11 to 16.9 µM)	1 to 8 (≈ 2.11 to 16.9 µM)
CC(CCN1CC=C(c2ccc(C#CC3CN(S(C)(=O)=O)C3)cc2)CC1)(C(=O)NO)S(C)(=O)=O (stereo not drawn) [Example 41, N-hydroxy-2-methyl-2-(methylsulfonyl)-4-(4-(4-((1-(methylsulfonyl)azetidin-3-yl)ethynyl)phenyl)-3,6-dihydropyridin-1(2H)-yl)butanamide]	1 to 8 (≈ 1.96 to 15.7 µM)	8 to 16 (≈ 15.7 to 31.4 µM)	8 to 16 (≈ 15.7 to 31.4 µM)
CC(CCN1CC=C(c2ccc(C#CC#CCCCO)c(F)c2)CC1)(C(=O)NO)S(C)(=O)=O (stereo not drawn) [Example 42, 4-(4-(3-fluoro-4-(7-hydroxyhepta-1,3-diyn-1-yl)phenyl)-3,6-dihydropyridin-1(2H)-yl)-N-hydroxy-2-methyl-2-(methylsulfonyl)butanamide]	< 1	1 to 8 (≈ 2.1 to 16.8 µM)	1 to 8 (≈ 2.1 to 16.8 µM)
CC(CCN1CC=C(c2ccc(C#CC#CCCO)c(F)c2)CC1)(C(=O)NO)S(C)(=O)=O (stereo not drawn) [Example 43, 4-(4-(3-fluoro-4-(6-hydroxyhexa-1,3-diyn-1-yl)phenyl)-3,6-dihydropyridin-1(2H)-yl)-N-hydroxy-2-methyl-2-(methylsulfonyl)butanamide]	< 1	1 to 8 (≈ 2.16 to 17.3 µM)	1 to 8 (≈ 2.16 to 17.3 µM)
CC(CCN1CC=C(c2ccc(C#CC#CC3CC3)c(F)c2)CC1)(C(=O)NO)S(C)(=O)=O (stereo not drawn) [Example 44, 4-(4-(4-(cyclopropylbuta-1,3-diyn-1-yl)-3-fluorophenyl)-3,6-dihydropyridin-1(2H)-yl)-N-hydroxy-2-methyl-2-(methylsulfonyl)butanamide]	< 1	1 to 8 (≈ 2.18 to 17.4 µM)	1 to 8 (≈ 2.18 to 17.4 µM)
CN(C)CC#CC#Cc1ccc(C2=CCN(CCC(C)(C(=O)NO)S(C)(=O)=O)CC2)cc1F (stereo not drawn) [Example 45, 4-(4-(4-(5-(dimethylamino)penta-1,3-diyn-1-yl)-3-fluorophenyl)-3,6-dihydropyridin-1(2H)-yl)-N-hydroxy-2-methyl-2-(methylsulfonyl)butanamide]	< 1	1 to 8 (≈ 2.1 to 16.8 µM)	1 to 8 (≈ 2.1 to 16.8 µM)
CC(CCN1CC=C(c2ccc(C#CC#CCCCO)cc2)CC1)(C(=O)NO)S(C)(=O)=O (stereo not drawn) [Example 46, N-hydroxy-4-(4-(4-(7-hydroxyhepta-1,3-diyn-1-yl)phenyl)-3,6-dihydropyridin-1(2H)-yl)-2-methyl-2-(methylsulfonyl)butanamide]	< 1	1 to 8 (≈ 2.18 to 17.4 µM)	1 to 8 (≈ 2.18 to 17.4 µM)
CC(CCN1CC=C(c2ccc(C#CC#CCCO)cc2)CC1)(C(=O)NO)S(C)(=O)=O (stereo not drawn) [Example 47, N-hydroxy-4-(4-(4-(6-hydroxyhexa-1,3-diyn-1-yl)phenyl)-3,6-dihydropyridin-1(2H)-yl)-2-methyl-2-(methylsulfonyl)butanamide]	< 1	1 to 8 (≈ 2.25 to 18 µM)	< 1
CC(CCN1CC=C(c2ccc(C#CC#CCO)cc2)CC1)(C(=O)NO)S(C)(=O)=O (stereo not drawn) [Example 48, N-hydroxy-4-(4-(4-(5-hydroxypenta-1,3-diyn-1-yl)phenyl)-3,6-dihydropyridin-1(2H)-yl)-2-methyl-2-(methylsulfonyl)butanamide]	< 1	1 to 8 (≈ 2.32 to 18.6 µM)	< 1
CN(C)CC#CC#Cc1ccc(C2=CCN(CCC(C)(C(=O)NO)S(C)(=O)=O)CC2)cc1 (stereo not drawn) [Example 49, 4-(4-(4-(5-(dimethylamino)penta-1,3-diyn-1-yl)phenyl)-3,6-dihydropyridin-1(2H)-yl)-N-hydroxy-2-methyl-2-(methylsulfonyl)butanamide]	< 1	1 to 8 (≈ 2.19 to 17.5 µM)	< 1
COCC#CC#Cc1ccc(C2=CCN(CCC(C)(C(=O)NO)S(C)(=O)=O)CC2)cc1 (stereo not drawn) [Example 50, N-hydroxy-4-(4-(4-(5-methoxypenta-1,3-diyn-1-yl)phenyl)-3,6-dihydropyridin-1(2H)-yl)-2-methyl-2-(methylsulfonyl)butanamide]	< 1	1 to 8 (≈ 2.25 to 18 µM)	< 1
CC(CCN1CC=C(c2ccc(C#CC#Cc3ccccc3)cc2)CC1)(C(=O)NO)S(C)(=O)=O (stereo not drawn) [Example 51, N-hydroxy-2-methyl-2-(methylsulfonyl)-4-(4-(4-(phenylbuta-1,3-diyn-1-yl)phenyl)-3,6-dihydropyridin-1(2H)-yl)butanamide]	> 16	> 16	> 16
